Data: US11274099B2 (Superb Wisdom Limited, priority 2017, dated 2022)

Experiment: Pharmacokinetic analysis in male SD rats after IV bolus, plasma by LC-MS/MS
Format: in vivo
Details: rat, IV bolus 0.04 mg/kg; for Cmax / half-life: 3 rats per group; for half-life: read-out: T1/2, ± SD (converted); for MRT inf: read-out: MRT0-Inf (Mean Residence Time); for MRT last: read-out: MRT0-last (Mean Residence Time); for Vd: read-out: Vdss (apparent volume of distribution at equilibrium); for AUC(0-t): time zero to last measurable concentration; for AUC(0-inf): zero up to ∞
Protocol: Each of the tested compounds was administered as an IV bolus (3 rats per group) at a dose 0.04 mg/kg. Rats were fasted at least 12 hours prior to administration of test compound. […] Blood samples were processed for plasma and analyzed by LC-MS/MS for the following pharmacokinetic parameters: Cmax, T1/2, CL, Vdss, AUC0-last, AUC0-∞, MRT0-last, and MRT0-∞.

Cmax [ng/mL] | half-life [h] | MRT inf [h] | MRT last [h] | Vd [L/kg] | AUC(0-t) [ng·h/mL] | AUC(0-inf) [ng·h/mL] | SMILES
40.3 ± 10.7 | 1.85 ± 1.05 | 2.1 ± 0.663 | 1.5 ± 0.328 | 2.62 ± 0.516 | 56.2 ± 6.51 | 60.4 ± 7.71 | [2H]C([2H])([2H])C(O)(Cn1c(COCC)nc2c(N)nc3ccccc3c21)C([2H])([2H])[2H] [Compound 104, 2-((4-amino-2-(ethoxymethyl)-1H-imidazo[4,5-c]quinolin-1-yl)methyl)propan-1,1,1,3,3,3-d6-2-ol]
40.1 ± 8.82 | 2.41 ± 1.71 | 2.43 ± 0.735 | 1.66 ± 0.151 | 3.23 ± 0.581 | 54.8 ± 6.02 | 59.4 ± 8.16 | [2H]C([2H])([2H])C([2H])([2H])OCc1nc2c(N)nc3ccccc3c2n1CC(C)(C)O [Compound 107, 1-(4-amino-2-((ethoxy-d5)methyl)-1H-imidazo[4,5-c]quinolin-1-yl)-2-methylpropan-2-ol]
44.5 ± 14.2 | 1.97 ± 1.76 | 1.79 ± 0.884 | 1.26 | 2.61 ± 0.732 | 49.3 ± 8.99 | 53 ± 11.2 | [2H]C([2H])([2H])C(O)(C([2H])([2H])[2H])C([2H])([2H])n1c(COCC)nc2c(N)nc3ccccc3c21 [Compound 113, 1-(4-amino-2-(ethoxymethyl)-1H-imidazo[4,5-c]quinolin-1-yl)-2-(methyl-d3)propan-1,1,3,3,3-d5-2-ol]
43.8 ± 10.9 | 1.03 ± 1.72 | 1.37 ± 0.139 | 1.09 ± 0.081 | 2.46 ± 0.361 | 42.1 ± 6.04 | 45.9 ± 6.67 | CCOCc1nc2c(N)nc3ccccc3c2n1CC(C)(C)O [Resiquimod, 1-(4-Amino-2-(ethoxymethyl)-1H-imidazo[4,5-c]quinolin-1-yl)-2-methylpropan-2-ol, reference compound]
